From the NIST ThermoML archive (doi:10.1021/je050141m)

Settings: Liquid, Ebulliometric method (Recirculating still)

CCCCCCOC(C)=O [hexyl ethanoate]
Settings | vapor or sublimation pressure [kPa]
397.97 K | 25
403.36 K | 30
408.02 K | 35
412.14 K | 40
416.02 K | 45
419.47 K | 50
422.59 K | 55
425.57 K | 60
428.26 K | 65
430.93 K | 70
433.38 K | 75
435.68 K | 80
437.92 K | 85
439.98 K | 90

CCCCCCO [hexan-1-ol]
Settings | vapor or sublimation pressure [kPa]
391.07 K | 25
395.62 K | 30
399.65 K | 35
403.15 K | 40
406.36 K | 45
409.25 K | 50
411.92 K | 55
414.44 K | 60
416.75 K | 65
418.98 K | 70
421.05 K | 75
423.01 K | 80
424.87 K | 85
426.69 K | 90
